Patent publication US8674103B2, “Lyotropic liquid crystal systems based on aromatic tetracarboxylic bisbenzoimidazole derivatives and methods for making” (Nitto Denko Corporation, priority 2009, dated 2014)
Values belong to the molecule of their own block, whether it stands above or below them.

Assay: Measurement of dichroic ratios of coated films by polarized absorbance spectra
Assay type: physicochemical
Protocol: Gardner Co. Inc.) at a linear velocity of 25 mm/s. The resulting film thickness was approximately 0.2 μm. The process was conducted at room temperature (˜20° C.) and relative humidity of 65% after the film was dried under the same condition. […] The dichroic ratio […] was equal to about 23 at about 500 nm. […] Gardner Co. Inc.) at a linear velocity of 25 mm/s. The resulting film thickness was approximately 200 nm. The process was conducted at room temperature (˜20° C.) and relative humidity of 65% after the film was dried under the same condition. The film was characterized by absorbance spectra measured on a spectrophotometer in a wavelength range from 380 to 780 nm using a light beam polarized along the direction of the film application (Apar) and the direction perpendicular to that (Aper).

SMILES: O=C(NCCOCCOCCCS(=O)(=O)O)c1ccc2c(c1)nc1c3ccc4c5ccc6c7c(ccc(c8ccc(c(=O)n21)c3c84)c57)c(=O)n1c2cc(C(=O)NCCOCCOCCCS(=O)(=O)O)ccc2nc61 [Compound 1]
dichroic ratio Kd=log(Apar)/log(Aper) (Sample 1: 12 wt % solution titrated with triethylamine to pH 7, film approx. 0.2 μm, at about 500 nm): about 23
λmax (Table 1, LLC chromophores): 500 nm
Dichroic ratio (Table 1, at λmax): 23

SMILES: O=C(NCCOCCS(=O)(=O)O)c1ccc2c(c1)nc1c3ccc4c5ccc6c7c(ccc(c8ccc(c(=O)n21)c3c84)c57)c(=O)n1c2cc(C(=O)NCCOCCS(=O)(=O)O)ccc2nc61 [Compound 2]
dichroic ratio (Kd) (Sample 2: 8 wt % solution titrated with LiOH to pH 7, film approx. 0.2, at about 500 nm): about 11

SMILES: O=C(NCCN(CCCS(=O)(=O)O)CCCS(=O)(=O)O)c1ccc2c(c1)nc1c3ccc4c5ccc6c7c(ccc(c8ccc(c(=O)n21)c3c84)c57)c(=O)n1c2cc(C(=O)NCCN(CCCS(=O)(=O)O)CCCS(=O)(=O)O)ccc2nc61 [Compound 3]
dichroic ratio (Kd) (Sample 3: 15 wt % solution titrated with LiOH to pH 7, film approx. 0.2 μm, at about 500 nm): about 17

SMILES: O=C(NCCS(=O)(=O)[O-])c1ccc2nc3c4ccc5c(=O)n6c7cc(C(=O)NCCS(=O)(=O)[O-])ccc7nc6c6ccc(c(=O)n3c2c1)c4c56.[K+].[K+] [Compound 7]
dichroic ratio (Kd) (Sample 6: 8 wt % solution titrated with KOH to pH 7, film approx. 0.2, at about 450 nm): about 8

SMILES: O=C(NCCCS(=O)(=O)[O-])c1ccc2nc3n(c2c1)Cc1ccc2c4c1c-3ccc4c(=O)n1c3cc(C(=O)NCCCS(=O)(=O)[O-])ccc3nc21.[Li+].[Li+] [Compound 8]
dichroic ratio (Kd) (Sample 7: 8 wt % solution titrated with LiOH to pH 7, film approx. 0.2 μm, at about 450 nm): about 10

dichroic ratio (Kd) (Sample 11: 25 wt % solution in water, film approx. 200 nm, at about 470 nm): about 4
SMILES: O=C(NCCN1CCCC1)c1ccc2nc3c4ccc5c(=O)n6c7cc(C(=O)NCCN8CCCC8)ccc7nc6c6ccc(c(=O)n3c2c1)c4c56 [Compound 17d]
